The subject of this assay is kidney injury (ischemia-reperfusion). The settings on record: rat; for blood urea nitrogen (BUN) / plasma creatinine: 15 mg/kg IV after ischemia-reperfusion, 24 hours after reperfusion, vs IR-vehicle; for kidney injury: dosed IV after ischemia-reperfusion.

Regarding `C[C@H]1CN(c2ccc(C#N)cn2)CCN1C(=O)CCc1nc2ccc(F)cc2c(=O)[nH]1` [Ex. 29, 6-[(3S)-4-[3-(6-fluoro-4-oxo-3H-quinazolin-2-yl)propanoyl]-3-methyl-piperazin-1-yl]pyridine-3-carbonitrile], the “blood urea nitrogen (BUN)” value is recorded as “significantly reduced”, the plasma creatinine result is listed as “significantly reduced” and the kidney injury result is given as “reduced kidney injury”.
`C[C@H]1CN(c2ccc(C#N)cn2)CCN1C(=O)CCc1nc2cccc(F)c2c(=O)[nH]1` [Ex. 30, 6-[(3S)-4-[3-(5-fluoro-4-oxo-3H-quinazolin-2-yl)propanoyl]-3-methyl-piperazin-1-yl]pyridine-3-carbonitrile]: the “blood urea nitrogen (BUN)” value is “significantly reduced”, the plasma creatinine result was “significantly reduced” and the kidney injury entry is on record as “reduced kidney injury”.
